Calls of active or inactive are those of the source. The calls are words filed in the database; no cut-off is given here.
Assays:
[1] = biological target: T1, Nicotinic acetylcholine receptor alpha1 subunit (Heliothis virescens) (UniProt O46128); experiment: Antagonist activity at nAChR in Heliothis virescens neuronal cells assessed as blockade of acetylcholine-induced response at 10 uM by voltage clamp technique; type: functional, cell-based; set-up: scale not given: the % may be the effect or the level left
T1 sequence (whole entry): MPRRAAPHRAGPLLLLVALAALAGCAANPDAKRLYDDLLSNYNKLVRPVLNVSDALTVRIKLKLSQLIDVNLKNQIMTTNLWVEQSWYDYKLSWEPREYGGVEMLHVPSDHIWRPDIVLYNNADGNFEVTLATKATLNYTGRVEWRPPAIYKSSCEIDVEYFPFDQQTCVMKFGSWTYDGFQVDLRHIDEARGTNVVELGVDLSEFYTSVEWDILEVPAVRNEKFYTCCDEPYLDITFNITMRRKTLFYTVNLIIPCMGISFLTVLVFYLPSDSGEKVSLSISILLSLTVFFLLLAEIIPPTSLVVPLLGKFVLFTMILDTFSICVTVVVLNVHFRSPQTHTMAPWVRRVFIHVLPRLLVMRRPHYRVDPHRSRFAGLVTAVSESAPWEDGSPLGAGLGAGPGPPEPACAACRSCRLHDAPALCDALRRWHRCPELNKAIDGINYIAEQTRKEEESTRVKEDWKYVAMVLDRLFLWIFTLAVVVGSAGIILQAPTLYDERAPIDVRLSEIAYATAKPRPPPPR

[2] = biological target: T2, Nicotinic acetylcholine receptor alpha1 subunit (Heliothis virescens, UniProt O46128); experiment: Agonist activity at nAChR in Heliothis virescens neuronal cells by voltage clamp technique; type: functional, cell-based
T2 sequence (O46128 whole entry): T1 sequence (whole entry)

[3] = biological target: T2, Nicotinic acetylcholine receptor alpha1 subunit; experiment: Antagonist activity at nAChR in Heliothis virescens neuronal cells by voltage clamp technique; type: functional, cell-based
Spodoptera frugiperda [4] = experiment: Insecticidal activity against Spodoptera frugiperda at 500 g/ha; type: functional, organism-based
Myzus persicae [5] = experiment: Insecticidal activity against Myzus persicae at 500 g/ha; type: functional, organism-based
Spodoptera frugiperda [6] = experiment: Insecticidal activity against Spodoptera frugiperda at 4 to 500 g/ha; type: functional, organism-based
Myzus persicae [7] = experiment: Insecticidal activity against Myzus persicae at 4 to 500 g/ha; type: functional, organism-based

In the case of `CC1=C[C@H]([C@H]2O[C@@H]3CCCN4[C@@H](CC[C@H]4[C@@H]4C[C@H](C)C(=O)O4)[C@H]3[C@@H]2C)OC1=O` (relative stereo), the Activity [1] is reported as 90%.

Molecule `CCCC[C@]12[C@@H]3C[C@H]4[C@H]5[C@H](C)C(C6OC(=O)C(CO)=C6OC)O[C@]5(O3)[C@@H]1CCN42` (some centres undefined) [16-hydroxystemofoline] has an EC50 [2] of 12 nM.

In the case of `COC1=C(C)C(=O)O/C1=C(\O)[C@@H](C)[C@H]1[C@@H](O)CCCN2[C@H]1CC[C@H]2[C@@H]1C[C@H](C)C(=O)O1` [PROTOSTEMODIOL], the IC50 [3] is reported as 10000 nM.

In the case of `CCCC[C@]12[C@H]3C[C@H]4[C@H]5[C@H](C)C(C6OC(=O)C(C)=C6OC)O[C@]5(O3)[C@@H]1[C@H](O)CN42` (stereo partly drawn) [6beta-hydroxystemofoline], the EC50 [2] is reported as 157 nM, the Activity (Spodoptera frugiperda [4]) is reported as “inactive” and the Activity (Myzus persicae [5]) is reported as “inactive”.

In the case of `CCCC[C@@]12C3CCN1[C@H]1C[C@H]2O[C@@]32O/C(=C3\OC(=O)C(C)=C3OC)[C@@H](C)[C@H]12` [STEMOFOLINE], the EC50 [2] is reported as 50 nM, the Activity (Spodoptera frugiperda [6]) is reported as “Active” and the Activity (Myzus persicae [7]) is reported as “Active”.

Reference: ChEMBL document CHEMBL1144692, “Alkaloids from stems and leaves of Stemona japonica and their insecticidal activities” (J Nat Prod, 2008)
